In the NIST ThermoML archive (doi:10.1021/je049867t):
Numbers after ± are expanded uncertainties.

Experiments:
[1] = Liquid
[2] = refractive index (Na D-line) (dimensionless); conditions: 293.15 K; 101.33 kPa; Liquid; Standard Abbe refractometry
[3] = 308.15 K, Ebulliometric method (Recirculating still)
[4] = 318.15 K, Ebulliometric method (Recirculating still)
[5] = 323.15 K, Ebulliometric method (Recirculating still)

Row | Compound | vapor or sublimation pressure [1, 3] | vapor or sublimation pressure [1, 4] | vapor or sublimation pressure [1, 5] | refractive index [2] | vapor or sublimation pressure ([1]; 298.02 K) | vapor or sublimation pressure ([1]; 306.98 K) | vapor or sublimation pressure ([1]; 318.15 K) | vapor or sublimation pressure ([1]; 319.2 K) | vapor or sublimation pressure ([1]; 327.9 K) | vapor or sublimation pressure ([1]; 334.78 K) | vapor or sublimation pressure ([1]; 340.52 K) | vapor or sublimation pressure ([1]; 345.48 K) | vapor or sublimation pressure ([1]; 349.85 K) | vapor or sublimation pressure ([1]; 353.81 K) | vapor or sublimation pressure ([1]; 355.64 K)
1 | Cc1ccccc1 [toluene] | 6.18 ± 0.1 kPa | 9.88 ± 0.1 kPa | 12.28 ± 0.1 kPa | 1.4965 ± 0.0007 |  |  |  |  |  |  |  |  |  |  | 
2 | CCC(C)(C)OC [2-methoxy-2-methylbutane] |  |  |  | 1.3862 ± 0.0009 | 10 ± 0.09 kPa | 15 ± 0.1 kPa | 23.99 ± 0.19 kPa | 25 ± 0.13 kPa | 35 ± 0.15 kPa | 45 ± 0.18 kPa | 55 ± 0.21 kPa | 65 ± 0.24 kPa | 75 ± 0.27 kPa | 85 ± 0.3 kPa | 90 ± 0.32 kPa
3 | COC(C)(C)C [2-methoxy-2-methylpropane] | 49.48 ± 0.15 kPa | 71.41 ± 0.17 kPa | 84.91 ± 0.18 kPa | 1.3698 ± 0.0007 |  |  |  |  |  |  |  |  |  |  | 
